Test results published in US7495004B2, “Purine derivatives as liver X receptor agonists” (Glaxo Group Limited, priority 2002, dated 2009).

Assays:
[1] = biological target: T1, LXRα ligand binding domain (Homo sapiens, UniProt Q13133); assay: Assay for LXRα activity (HTRF, SRC-1 peptide recruitment); format: biochemical; conditions: 1 μM; over a background reading of 10000 fluorescence units
T1 construct: His tag; made in house
T1 sequence (Q13133 183-447): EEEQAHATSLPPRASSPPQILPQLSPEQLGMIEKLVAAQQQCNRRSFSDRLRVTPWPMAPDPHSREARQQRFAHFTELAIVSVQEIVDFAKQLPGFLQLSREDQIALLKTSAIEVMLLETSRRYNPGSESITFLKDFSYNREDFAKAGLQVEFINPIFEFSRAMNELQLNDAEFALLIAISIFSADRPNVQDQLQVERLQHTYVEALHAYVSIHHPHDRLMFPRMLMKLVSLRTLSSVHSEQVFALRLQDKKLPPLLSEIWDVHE
T1 sequence (Q15788 676-700 partner): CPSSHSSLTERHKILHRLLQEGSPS
Description: The assay for LXRα was run according to the procedures of Example 1, above using his-tagged LXRα ligand binding domain (amino acids 183-447 of Genbank accession number U22662, with the 14th amino acid corrected to A from R). Percentage control is relative to 24(S),25-epoxycholesterol.
In this assay 1 μM 24(S),25-epoxycholesterol gave a reading of 20000 fluorescence units over a background reading of 10000 fluorescence units.

[2] = biological target: T2, human LXRβ ligand binding domain (Homo sapiens, UniProt P55055); assay: Assay for LXRβ activity (HTRF, SRC-1 peptide recruitment); format: biochemical; conditions: 1 μM; over a background reading of 10000 fluorescence units
T2 construct: made in house; host or cells: E. coli BL21 (DE3), vector pRSETa
T2 sequence (P55055 184-460 limits assumed): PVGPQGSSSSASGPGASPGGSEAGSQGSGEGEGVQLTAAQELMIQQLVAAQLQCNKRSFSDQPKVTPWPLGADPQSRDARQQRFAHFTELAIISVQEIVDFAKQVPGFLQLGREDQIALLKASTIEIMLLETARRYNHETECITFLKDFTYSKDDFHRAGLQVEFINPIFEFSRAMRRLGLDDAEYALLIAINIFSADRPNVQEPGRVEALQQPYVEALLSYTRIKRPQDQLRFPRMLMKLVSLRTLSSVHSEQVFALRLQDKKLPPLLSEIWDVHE
T2 sequence (Q15788 676-700 partner limits assumed): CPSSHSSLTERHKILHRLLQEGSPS
Description: A modified polyhistidine tag (MKKGHHHHHHG) (SEQ ID No. 1) was fused in frame to the human LXRβ ligand binding domain (amino acids 185-461 of Genbank accession number U07132) and subeloned into the expression vector pRSETa (Invitrogen) under the control of an IPTG inducible T7 promoter. The human LXRβ ligand binding domain was expressed in E. coli strain BL21 (DE3). Ten-liter fermentation batches were grown in Rich PO4 media with 0.1 mg/mL Ampicillin at 25° C. for 12 hours, cooled to 9° C. and held at that temperature for 36 hours to a density of OD600=14. At this cell density, 0.25 mM IPTG was added and induction proceeded for 24 hours at 9° C., to a final OD600=16. Cells were harvested by centrifugation (20 minutes, 3500 g, 4° C.), and concentrated cell slurries were stored in PBS at −80° C.
Typically 25-50 g of cell paste is resuspended in 250-500 mL TBS, pH 8.0 (25 mM Tris, 150 mM NaCl). Cells are lysed by passing 3 times through an APV Rannie MINI-lab homogenizer, and cell debris is removed by centrifugation (30 minutes, 20,000 g, 4° C.). […] After washing to baseline absorbance with equilibration buffer, the column is washed with approximately one column volume of TBS pH […] containing 95 mM imidazole. […] After washing to baseline absorbance with the dilution buffer the protein is eluted with a gradient from 50-500 mM NaCl. […]

C[C@H](CC[C@@H]1OC1(C)C)[C@H]1CC[C@H]2[C@@H]3CC=C4C[C@@H](O)CC[C@]4(C)[C@H]3CC[C@]12C [24(S),25-epoxycholesterol]
reading in LXRα assay [1]: 20000 fluorescence units | reading in LXRβ assay [2]: 20000 fluorescence units
